Assay results from EP1032364B1, “TOPICAL COMPOSITIONS CONTAINING SIALYL SUGARS AND THEIR DERIVATIVES” (E-L Management Corp., priority 1998, dated 2000).
Where “and” joins values, the source holds several entries; their conditions need not be identical. Identical values can stand only once.

Columns and labels:
[1] = test system: volunteers with a history of skin sensitivity to Balsam of Peru; assay: in vivo skin anti-irritancy test, Balsam of Peru challenge, redness by Minolta chromameter (Example 2); settings: for % Decrease In Redness: 20 min before Balsam of Peru, 7 volunteers; for preventing irritation caused by a topical irritant (in words): Balsam of Peru challenge, 0.1%
Excerpt: The following in vivo assay illustrates the effectiveness of sialyl oligosaccharide derivatives, 3'- and 6'-sialyl lactose, in preventing skin irritation. The in vivo assays used to assess efficacy of topical anti-irritants are known to those skilled in the art, examples of such assays may be found in Muizzuddin et al., 1990, J. Soc. Cosmet. Chem. 41:369-378, and Lubach et al. in Topical Corticoids, Maibach & Surber (eds.) Basel, Karger, 1992, pp. 26-41, both of which are incorporated herein by reference in their entirety. The skin anti-irritancy effects of 3'- and 6'- sialyl lactose were tested on 7 volunteers with a history of skin sensitivity to Balsam of Peru. The test compounds were applied to the ventral forearms of the panelists. The material was allowed to absorb for twenty minutes and then Balsam of Peru, an irritant, was applied to the test sites. Skin irritation was measured in terms of increase in skin redness.
The degree of redness was measured with the Minolta chromameter and compared with the positive and negative controls. The positive control was the color of skin treated with Balsam of Peru alone and the negative control was the skin treated with cola material challenged like the test material.

[2] = test system: volunteers with a history of skin sensitivity to Balsam of Peru; assay: in vivo skin anti-irritancy test, Balsam of Peru challenge, redness by Minolta chromameter (Example 3); settings: 0.1% topical on ventral forearm, 20 min before Balsam of Peru, 7 volunteers
Experimental: The following in vivo assay illustrates the effectiveness of 3'-sialyl oligosaccharide derivatives in preventing skin irritation. The skin anti-irritancy effects of various derivatives of 3'-sialyl lactose were tested on 7 volunteers with a history of skin sensitivity to Balsam of Peru. The test compounds benzyl sialyl lactose and ethyl sialyl lactose were applied to the ventral forearms of the panelists. The material was allowed to absorb for twenty minutes and then Balsam of Peru, an irritant, was applied on the test sites. Skin irritation was measured in terms of increase in skin redness. The degree of redness was measured with the Minolta chromameter and compared with the positive and negative controls. The positive control was the color of skin treated with Balsam of Peru alone and the negative control was the skin treated with cola material challenged like the test material.

PMN-endothelial cells = assay: in vitro inhibition of adhesion of activated neutrophils to endothelial cells; format: cell-based; settings: for % Inhibition of Adhesion: neutrophils activated with interleukin-1 or TPA
Experimental: The following in vitro assay illustrates the effectiveness of the sialyl oligosaccharide derivative, 3' sialyl lactose, in inhibiting the adhesion of cells that express SLeX on their surfaces to cells expressing a selectin receptor. The ability of 3'-sialyl lactose to inhibit cell adhesion was tested using an in vitro assay system. Neutrophils were activated with either interleukin-1 or phorbol ester, TPA, to induce expression of selections and binding to endothelial cells. The activated neutrophils were treated with either 3'-sialyl lactose at 0.01 and 0.02%, sucrose at 4% or a positive control, and then assayed for their ability to bind to PMN-endothelial cells.

[3] = 0.1% topical on ventral forearm

`OC[C@H]1O[C@@H](O[C@H]2[C@H](O)[C@@H](O)C(O)O[C@@H]2CO)[C@H](O)[C@@H](O)[C@H]1O` (some centres unmarked) [Lactose, reference compound] was tested, and the “% Decrease In Redness” value [1, 3] was 45% and the “preventing irritation caused by a topical irritant (in words)” value (“preventing irritation caused” for short) [1] was “ineffective”.
benzyl sialyl lactose was tested, and the “% Decrease In Redness” value [2] was 42.47% and the “% Decrease In Redness” value ([2]; listed as benzyl sialyl lactose) was 42.47%.
In the case of `CC(=O)N[C@H]1[C@H]([C@H](O)[C@H](O)CO)O[C@@](O[C@H]2[C@@H](O)[C@@H](CO)O[C@@H](O[C@H]3[C@H](O)[C@@H](O)C(O)O[C@@H]3CO)[C@@H]2O)(C(=O)O)C[C@@H]1O` (some centres unmarked) [3'-Sialyl lactose, 3'-N acetylneuraminyl-lactose], the “inhibiting the adhesion of cells that express SLeX to cells expressing a selectin receptor (in words)” value (PMN-endothelial cells; 0.02%, IL-1 induced neutrophils) is reported as “very effective”, the “% Inhibition of Adhesion” value (PMN-endothelial cells; test compound at 0.01%) is reported as 39% and the “% Inhibition of Adhesion” value (PMN-endothelial cells; test compound at 0.02%) is reported as 61%. The “% Decrease In Redness” value [1, 3] was 69% and 67% and the “preventing irritation caused” value [1] was “significant activity”.
For `CC(=O)N[C@H]1[C@H]([C@H](O)[C@H](O)CO)O[C@@](OC[C@H]2O[C@@H](O[C@H]3[C@H](O)[C@@H](O)[C@H](O)O[C@@H]3CO)[C@H](O)[C@@H](O)[C@H]2O)(C(=O)O)C[C@@H]1O` [6'-Sialyl lactose, 6'-sialyl lactose], the “% Decrease In Redness” value [1, 3] was 57% and the “preventing irritation caused” value [1] was “significant activity”.
For `C[C@]12CCC(=O)C=C1CC[C@@H]1[C@@H]2[C@@H](O)C[C@@]2(C)[C@H]1CC[C@]2(O)C(=O)CO` [Hydrocortisone, reference compound], the “% Decrease In Redness” value ([1]; 0.5% topical on ventral forearm) was 66%.
For `OC[C@H]1O[C@@](CO)(O[C@H]2O[C@H](CO)[C@@H](O)[C@H](O)[C@H]2O)[C@@H](O)[C@@H]1O` [Sucrose, reference compound], the “% Inhibition of Adhesion” value (PMN-endothelial cells; test compound at 4.0%) was 40%.
With `CC(=O)N[C@H]1[C@H]([C@H](O)[C@H](O)CO)OC(O)(C(=O)O)C[C@@H]1O` (some centres unmarked) [Sialic Acid, reference compound] the “% Decrease In Redness” value [1, 3] was 31%.
For `CC(=O)N[C@H]1[C@H]([C@H](O)[C@H](O)CO)O[C@@](O[C@H]2[C@@H](O)[C@@H](CO)O[C@@H](O[C@H]3[C@H](O[C@@H]4O[C@@H](C)[C@@H](O)[C@@H](O)[C@@H]4O)[C@@H](NC(C)=O)C(O)O[C@@H]3CO)[C@@H]2O)(C(=O)O)C[C@@H]1O` (some centres unmarked) [Sialyl Lewis X, NeuAcα2-3βGalβ1-4(Fucα1-3)GlcNAc, reference compound], the “% Decrease In Redness” value [1, 3] was 66%.
With ethyl sialyl lactose the “% Decrease In Redness” value [2] was 40.6% and the “% Decrease In Redness” value ([2]; listed as lactose ethyl) was 40.6%.
